The text below walks through data of ChEMBL document CHEMBL6177929, “Synthesis and screening of novel 2,4-bis substituted quinazolines as tubulin polymerization promoters and antiproliferative agents” (RSC Med Chem, 2025).

Data set [1] relates to SH-SY5Y. The experiment in a line: Antiproliferative activity against human SH-SY5Y cells assessed as reduction in cell viability incubated for 48 hrs by MTT assay. Format: functional, cell-based. In general terms: Tetrazolium dyes change colour on reduction, which living cells bring about.
Data set [2] deals with MCF7. The experiment in a line: Antiproliferative activity against human MCF7 cells assessed as reduction in cell viability incubated for 48 hrs by MTT assay. Format: functional, cell-based. To be noted: MCF7, 48 h.
The subject of data set [3] is HCT-116. The experiment in a line: Antiproliferative activity against human HCT-116 cells assessed as reduction in cell viability incubated for 48 hrs by MTT assay. Format: functional, cell-based. To be noted: HCT-116, 48 h.
For data set [4], the system named is SH-SY5Y. In words: Induction of apoptosis in human SH-SY5Y cells assessed as early apoptotic cells at 5 uM incubated for 48 hrs by Annexin V-FITC/PI staining based flow cytometry analysis (reference value: 2.0%). The format is functional. Background: A flow cytometer gives signals particle by particle.
The test system of data set [5] is SH-SY5Y. In words: Induction of cell cycle arrest in human SH-SY5Y cells assessed as accumulation of cells at G1/G0 phase at 5 uM incubated for 48 hrs by LSRFortessa cell analyzer (reference value: 50.1%). Format: functional.
The subject of data set [6] is SH-SY5Y. The experiment in a line: Induction of apoptosis in human SH-SY5Y cells assessed as viable cells at 5 uM incubated for 48 hrs by Annexin V-FITC/PI staining based flow cytometry analysis (reference value: 91.3%). To be noted: read-out: Activity. Format: functional.
In data set [7] the test system is SH-SY5Y. In words: Induction of mitochondrial membrane potential in human SH-SY5Y cells assessed as mitochondria depolarization at 5 uM incubated for 48 hrs by synergy H1 microplate reader analysis. Format: functional, cell-based.
For data set [8], the system named is SH-SY5Y. In words: Induction of apoptosis in human SH-SY5Y cells assessed as necrotic cells at 5 uM incubated for 48 hrs by Annexin V-FITC/PI staining based flow cytometry analysis (reference value: 0.7%). Format: functional.
The test system of data set [9] is HEK-293T. In words: Cytotoxicity against human HEK293T cells at 25 uM incubated for 48 hrs by MTT assay. Format: toxicity, cell-based.
Data set [10] concerns SH-SY5Y. In words: Induction of cell cycle arrest in human SH-SY5Y cells assessed as accumulation of cells at S phase at 5 uM incubated for 48 hrs by LSRFortessa cell analyzer (reference value: 16.2%). Format: functional.
Data set [11] has as its system SH-SY5Y. In words: Induction of apoptosis in human SH-SY5Y cells assessed as late apoptotic cells at 5 uM incubated for 48 hrs by Annexin V-FITC/PI staining based flow cytometry analysis (reference value: 3.0%). The format is functional.
The subject of data set [12] is SH-SY5Y. The experiment in a line: Induction of cell cycle arrest in human SH-SY5Y cells assessed as accumulation of cells at G2/M phase at 5 uM incubated for 48 hrs by LSRFortessa cell analyzer (reference value: 28.4%). Format: functional.
Data set [13] has as its target T1, Tubulin (Homo sapiens) (UniProt P68371+Q9H4B7+P0DPH7+P68366+Q13509+Q71U36+P04350+Q3ZCM7+P07437+P68363+Q9BQE3+Q6PEY2+Q13885+Q9BVA1+Q9BUF5). In words: Inhibition of tubulin polymerization (unknown origin) at 1 uM incubated for 60 mins measured every 1 mins by spectrophotometric analysis. The format is protein-complex assay.
Data set [14] addresses T1, Tubulin (Homo sapiens). In words: Inhibition of tubulin polymerization (unknown origin) at 5 uM incubated for 60 mins measured every 1 mins by spectrophotometric analysis. The format is protein-complex assay.

Each structure is given as a SMILES string. Activity calls are given as the source filed them. No cut-off for these calls is given here.

A word on the IC50: it is the concentration at which inhibition is half-maximal.

As for `c1ccc(CN2CCN(c3nc(N4CCN(Cc5ccccc5)CC4)c4ccccc4n3)CC2)cc1`, the IC50 is greater than 25 µM in data set [1], 21.8 µM in data set [2] and greater than 25 µM in [3].

Take `c1ccc(N2CCN(c3nc(N4CCN(c5ccccc5)CC4)c4ccccc4n3)CC2)cc1`: the half-maximal inhibitory concentration (IC50) in data set [1] is greater than 25 µM; in data set [2], 12.8 µM; in data set [3] it was 9.19 µM.

In the case of `c1ccc2c(-n3cnnc3)nc(-n3cnnc3)nc2c1`, the values for the IC50 in data set [1], in data set [2] and in data set [3] were 15.3 µM, 19 µM and 17.5 µM, respectively.

For the molecule `COc1cc2c(-n3nnc4ccccc43)nc(-n3nnc4ccccc43)nc2c(OC)c1OC`, the Activity in data set [4] is on record as 10.3%; in data set [5], 78.9%; in data set [8], 2%; in data set [9], “Non-toxic”; in [10], 7.7%; in [11] it was 51.8%. Also, the Activity in [12] is 8.4%. For the same molecule, in data set [6], the viability at 5 µM was determined as 35.9%. Also, the outcome in [7] was inactive. The results for the IC50 in [1], in data set [2] and in data set [3] were 8.14 µM, 3.45 µM and 7.25 µM, respectively.

Consider `c1ccc2c(N3CCOCC3)nc(N3CCOCC3)nc2c1`, for which the results for the IC50 in data set [1], in data set [2] and in data set [3] were 18.9 µM, 14.6 µM and greater than 25 µM, respectively.

Turning to `COc1cc2c(-n3cnnc3)nc(-n3cnnc3)nc2c(OC)c1OC`, the IC50 in data set [1] is greater than 25 µM; in data set [2], 23.1 µM; in data set [3], 13.8 µM.

With `c1ccc2c(-n3nnc4ccccc43)nc(-n3nnc4ccccc43)nc2c1`, the IC50 in data set [1] was 11 µM; in data set [2], 15.3 µM; in [3], greater than 25 µM.

In the case of `c1ccc2c(-n3ccnc3)nc(-n3ccnc3)nc2c1`, the IC50 in data set [1] stood at 15.7 µM; in [2], 11.5 µM; in data set [3] it was 9.43 µM.

In the case of `CN1CCN(c2nc(N3CCN(C)CC3)c3ccccc3n2)CC1`, the IC50 in [1] is 23.8 µM; in data set [2], greater than 25 µM; in [3], 20.7 µM.

As to `COc1cc2c(c(OC)c1OC)-c1ccc(OC)c(=O)cc1[C@@H](NC(C)=O)CC2` [COLCHICINE], the Activity in data set [4] was determined as 6.5%; in data set [5], 5.1%; in [8], 3.9%; in data set [10] it was 4.1%; in data set [11], 54.5%; in data set [12], 90%. Also, the viability at 5 µM in data set [6] was determined as 35.1%. Moreover, the IC50 in [1] is 6.82 µM; in data set [2] it was 4.48 µM; in data set [3], 1.65 µM.

As to `COc1cc2c(-n3ccnc3)nc(-n3ccnc3)nc2c(OC)c1OC`, the Activity in data set [4] is 9.6%; in data set [5] it was 11.3%; in data set [8], 6.8%; in [9], “Non-toxic”; in data set [10], 6.8%; in data set [11] it was 50.3%. Besides, the Activity in data set [12] is 79%. In addition, the viability at 5 µM in data set [6] was determined as 33.3%. Moreover, the outcome in data set [7] was Active. In data set [13], the inhibition entry is “inactive”. The inhibition result in data set [14] was “Active”. For the same molecule, the IC50 in data set [1] was 9.91 µM; in [2], 4.25 µM; in [3] it was 2.65 µM.

With `COc1cc2c(N3CCOCC3)nc(N3CCOCC3)nc2c(OC)c1OC`, the values for the IC50 in [1], in data set [2] and in [3] were 15.9 µM, 18.8 µM and greater than 25 µM, respectively.

Turning to `COc1cc2c(N3CCN(C)CC3)nc(N3CCN(C)CC3)nc2c(OC)c1OC`, the results for the IC50 in data set [1], in data set [2] and in [3] were greater than 25 µM, 24.1 µM and 21.3 µM, respectively.
